Data on 8 compounds can be found in patent US6878546B2, “Product and method for swelling a cell nucleus without DNA replication” (Brandeis University, priority 1993, dated 2005).

SMILES strings stand for the structures. Where two headings read alike, the source gives them in different places.

For assay [1], the system named is Xenopus red blood cells nuclei. The conditions noted are these: for Cpm Incorporated After X Minutes: 23° C. As for the experimental part:
The affect of cAMP on DNA replication in activated Xenopus red blood cells was determined.
Cyclic-AMP was then added to separate aliquots to yield final concentrations of 0.0 μM, 0.1 μM, 1.0 μM, or 10 μM.
Each aliquot was warmed to 23° C. and sampled over time to determine P^32-dCTP incorporation into replicated DNA. At each time point, a 7 μl aliquot was taken, frozen on dry ice, and later thawed and digested by the addition of 10 μl replication sample buffer (80 mM Tris (pH 8.0), 8 mM EGTA, 0.13% phosphoric acid, 10% Ficoll, 5% SDS, 0.2% bromphenol blue) containing proteinase K (1.0 mg/ml) for 2 hours at room temperature. Incorporated radioactivity was analyzed by electrophoresis on a 0.8% agarose gel (50V, 20 hours) followed by vacuum drying the gel and counting on a Betascope.

The subject of assay [2] is Xenopus red blood cells nuclei. The assay is described as follows: DNA replication in activated nuclei in caffeine supplemented activating egg extract. The assay is classed as biochemical. The conditions noted are these: caffeine at 1.0 mM in the presence of 0.3 μM cAMP; compared with 0.2 mM and 5.0 mM; FIG. 1. The method, then:
The experimental conditions used were as described in Example 1 with the following changes: the concentration of cAMP was set at 0.3 μM and caffeine was added to the activating egg extract to a concentration of either 0.2 mM, 1.0 mM, or 5.0 mM.

The test system of assay [3] is Xenopus erythrocyte nuclei. As to the kind of experiment: DNA replication in activating egg extract after further pretreatment in CSF extract supplemented with DMAP. The assay is classed as biochemical. The conditions noted are these: 5 mM DMAP in CSF extract; FIG. 2. As for the experimental part:
Addition of 6-dimethylaminopurine (DMAP) to CSF extracts was used to further pretreat Xenopus erythrocyte nuclei and stimulate subsequent DNA replication in activating egg extract. DMAP can be used to inhibit nucleic acid synthesis and protein kinase activity. Xenopus erythrocyte nuclei were isolated and pretreated as described in Example 1 above, and incubated in thawed “prepared CSF extract” supplemented with 80 mM β-glycerol-PO4, and 5 μg/ml nocodazole at a concentration of 2000 nuclei/μl. Further pretreatment was carried out by incubation for 30 minutes at 4° C., then 30 minutes at 25° C., then 60 minutes at 4° C. Half the samples were supplemented with 5 mM DMAP before addition of the nuclei. After the two hours of incubation, each sample was diluted with 9 volumes of activating egg extract, supplemented with 5 μg/ml nocodazole (this dose of nocodazole slows down the rate of replication) and approximately 160 μCi/ml P^32-dCTP. Aliquots were removed over time to measure DNA replication.

In assay [4] the test system is erythrocyte nuclei. The assay is described as follows: Supplements to CSF extract: chromatin assembly and later DNA synthesis in activating egg extract. The assay is classed as biochemical, Xenopus. The text has this:
After further pretreatment in CSF extract, the nuclei may be activated by adding 9 volumes of “prepared activating egg extract.” DNA replication, measured by incorporation of labelled nucleotides into DNA strands, may be used to determine the extent to which prior treatment in CSF extract enhances nuclear activation in activating extract. Labelled nucleotides useful in measuring nuclear DNA replication include microcurie amounts of P^32-dCTP for radioactive measurement of newly synthesized DNA, 16-50 μM biotinylated-dUTP or BrdUTP for fluorescent measurement of newly synthesized DNA, and 250 μM BrdUTP for density labelling of newly synthesized DNA.
Several supplements to CSF extract, in the proper concentration, increased the ability of CSF extract to enhance activation activity without resulting in premature DNA synthesis activity. Useful supplements include β-glycerol-PO4, Ca^2+, and protein kinase inhibitors. The addition of β-glycerol-PO4 increased the rate at which negatively supercoiled DNA relaxed in CSF extract and was subsequently assembled into chromatin. […] Beta-glycerol-PO4 is an inhibitor of phosphatase activity and may act by increasing the level of the phosphorylated functionally-active form of topoisomerase II in the CSF extract. […]

Assay [5] relates to human fetal liver erythroid cell nuclei. The assay is described as follows: Activation of human fetal liver erythroid cell nuclei in activating extract (swelling, replication, chromosome formation). The assay is classed as biochemical. The conditions noted are these: aphidicolin added at T=0. The method, then:
Step 5: Activation of erythroid cell nuclei. Nuclear swelling, envelope formation, and replication were carried out on human fetal liver erythroid cell nuclei prepared using the optimal conditions described in steps 1-4 above. […] The resulting nuclei concentration was about 200/μl.
The following measurement were taken: DNA synthesis was monitored using extract containing P^32dCTP by gel electrophoresis; histone H1 kinase was measured; and samples, labelled with biotinylated-dUTP were taken for cytological analysis of DNA replication and nuclear envelope breakdown.
Experiments were also carried out to determine whether nuclear swelling was dependent on DNA synthesis, by activating nucleic in the presence of aphidicolin (added at T=0).
Swelled and replicated nuclei were treated with Cyclin-Δ90 or CSF extract. Cyclin-Δ90 was added to activating extract to obtain prophase mitotic chromosomes, while CSF extract was added to obtain metaphase chromosomes and nuclear envelope breakdown.

The subject of assay [6] is Xenopus erythrocyte nuclei. The assay is described as follows: Induction optimization: P^32-dCTP incorporation into DNA of pretreated nuclei in activating egg extract, cycloheximide added at different times. The class given is biochemical. The conditions noted are these: total 60 minutes at 25° C. The method, then: Induction optimization was carried for Xenopus as describe below (see also Example 2, infra, for further optimization experiments). Xenopus erythrocyte nuclei were isolated and pretreated with lysolecithin and trypsin as described in Example 2 (described below). An activating egg extract was prepared from hardened eggs which were induced for 10 minutes as described above. Both the activating egg extract and the pretreated nuclei were kept on ice (about 4° C.). The activating egg extract was supplemented with 1 mM ATP (not used in the other examples described herein), 10 μg/ml creatine phosphokinase, 10 mM creatine phosphate, 10 μCi P^32-dCTP and combined with pretreated nuclei (about 200 nuclei/μl). Individual aliquots containing activated nuclei were shifted from 4° C. to 25° C. […] After 60 minutes, P^32-dCTP incorporation into newly synthesized DNA was determined.

Assay [7] is described as follows: Rate of DNA replication in activating egg extract with nocodazole. The following applies: 5 μg/ml nocodazole added to activating egg extract. The assay is classed as biochemical.

Consider `Nc1ncnc2c1ncn2[C@@H]1O[C@@H]2COP(=O)(O)O[C@H]2[C@H]1O` [Cyclic AMP, Cyclic-AMP], for which the “DNA replication in activated nuclei compared to without any cAMP” value in assay [1] (0.1 μM cAMP) is “increased”; in assay [1] (1.0 μM cAMP, compared with 0.1 μM) it was “greater increase”; in assay [1] (10 μM cAMP), “inhibits DNA replication”. The “Cpm Incorporated After X Minutes” value is given as 14 Cpm in assay [1] (0.1 Micromoles of Cyclic AMP Added, after 0 minutes); 51 Cpm in assay [1] (0.1 Micromoles of Cyclic AMP Added, after 45 minutes); 68 Cpm in assay [1] (0.1 Micromoles of Cyclic AMP Added, after 90 minutes); 290 Cpm in assay [1] (0.1 Micromoles of Cyclic AMP Added, after 135 minutes); 1,141 Cpm in assay [1] (0.1 Micromoles of Cyclic AMP Added, after 180 minutes); 2,945 Cpm in assay [1] (0.1 Micromoles of Cyclic AMP Added, after 240 minutes). Also, the “Cpm Incorporated After X Minutes” value is 2,692 Cpm in assay [1] (0.1 Micromoles of Cyclic AMP Added, after 300 minutes); 10 Cpm in assay [1] (1.0 Micromoles of Cyclic AMP Added, after 0 minutes); 14 Cpm in assay [1] (1.0 Micromoles of Cyclic AMP Added, after 45 minutes); 56 Cpm in assay [1] (1.0 Micromoles of Cyclic AMP Added, after 90 minutes); 564 Cpm in assay [1] (1.0 Micromoles of Cyclic AMP Added, after 135 minutes); 2,316 Cpm in assay [1] (1.0 Micromoles of Cyclic AMP Added, after 180 minutes). Further, the “Cpm Incorporated After X Minutes” value is 4,484 Cpm in assay [1] (1.0 Micromoles of Cyclic AMP Added, after 240 minutes); 5,504 Cpm in assay [1] (1.0 Micromoles of Cyclic AMP Added, after 300 minutes); 43 Cpm in assay [1] (10 Micromoles of Cyclic AMP Added, after 0 minutes); 34 Cpm in assay [1] (10 Micromoles of Cyclic AMP Added, after 45 minutes); 31 Cpm in assay [1] (10 Micromoles of Cyclic AMP Added, after 90 minutes); 35 Cpm in assay [1] (10 Micromoles of Cyclic AMP Added, after 135 minutes). For the same compound, the “Cpm Incorporated After X Minutes” value in assay [1] (10 Micromoles of Cyclic AMP Added, after 180 minutes) is on record as 85 Cpm; in assay [1] (10 Micromoles of Cyclic AMP Added, after 240 minutes), 168 Cpm; in assay [1] (10 Micromoles of Cyclic AMP Added, after 300 minutes) it was 571 Cpm.

As for `Cn1c(=O)c2c(ncn2C)n(C)c1=O` [caffeine], the “initial rate and extent of DNA replication in activated nuclei” value in assay [2] was “highest initial rate and extent of DNA replication”.

For `CN(C)c1ncnc2nc[nH]c12` [DMAP, 6-dimethylaminopurine], in assay [3], the “initial rate and total amount of DNA synthesis” value is “increased”; the “lag time before the onset of replication” value is “decreased”.

In the case of `[Ca+2].[Cl-].[Cl-]` [Ca^2+, CaCl2], the “amount and rate of DNA synthesis in erythrocyte nuclei after addition of activating egg extract” value in assay [4] (100 μM Ca^2+ added to CSF extract) is “increased both the amount and the rate of DNA synthesis”.

Consider `C[C@@]1(CO)[C@H](O)CC[C@@]2(C)[C@H]1CC[C@H]1C[C@@H]3C[C@@]12CC[C@]3(O)CO` [aphidicolin], for which the “replication (biotin labelling)” value in assay [5] is reported as “no replication took place”. The nuclear swelling entry in assay [5] (absence of replication) is “many nuclei swelled significantly”.

In the case of `C[C@@H]1C[C@@H]([C@H](O)CC2CC(=O)NC(=O)C2)C(=O)[C@@H](C)C1` [CHM, Cycloheximide], the “Cpm Incorporated into DNA” value is recorded as 2,894 Cpm in assay [6] (CHM 100 μg/ml added at 0 minutes, extract from eggs induced 10 minutes); 4,208 Cpm in assay [6] (CHM 100 μg/ml added at 5 minutes); 4,937 Cpm in assay [6] (CHM 100 μg/ml added at 15 minutes); 3,775 Cpm in assay [6] (CHM 100 μg/ml added at 30 minutes); 2,314 Cpm in assay [6] (CHM 100 μg/ml added at 45 minutes).

As to `O=P(O)(O)OC(CO)CO` [β-glycerol-PO4], the “chromatin assembly in CSF extract” value in assay [4] (about 80 mM β-glycerol-PO4) is on record as “aid in chromatin assembly without causing DNA synthesis”.

`COC(=O)Nc1nc2ccc(C(=O)c3cccs3)cc2[nH]1` [nocodazole]: the “rate of DNA replication” value in assay [7] is “decreases”.
